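Compound exposure: 48 hours, 5 concentrations, 96-well plates. GI50: concentration for 50% inhibition of growth. TGI: concentration producing complete growth inhibition.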
Experiments:
Test in all cases: NCI anticancer screen, dose series, 48 h
OVCAR-4 ovarian = tested on: OVCAR-4 ovarian
786-0 renal = tested on: 786-0 renal
SR leukemia = tested on: SR leukemia
LOX IMVI melanoma = tested on: LOX IMVI melanoma
OVCAR-5 ovarian = tested on: OVCAR-5 ovarian
KM12 colon = tested on: KM12 colon
NCI-H460 lung = tested on: NCI-H460 lung
NCI-H226 lung = tested on: NCI-H226 lung
COLO 205 colon = tested on: COLO 205 colon
IGROV1 ovarian = tested on: IGROV1 ovarian

Row | Structure (SMILES) | GI50 (OVCAR-4 ovarian) [nM] | TGI (OVCAR-4 ovarian) [nM] | GI50 (786-0 renal) [nM] | TGI (786-0 renal) [nM] | GI50 (SR leukemia) [nM] | TGI (SR leukemia) [nM] | GI50 (LOX IMVI melanoma) [nM] | TGI (LOX IMVI melanoma) [nM] | GI50 (OVCAR-5 ovarian) [nM] | TGI (OVCAR-5 ovarian) [nM] | GI50 (KM12 colon) [nM] | TGI (KM12 colon) [nM] | GI50 (NCI-H460 lung) [nM] | TGI (NCI-H460 lung) [nM] | GI50 (NCI-H226 lung) [nM] | TGI (NCI-H226 lung) [nM] | GI50 (COLO 205 colon) [nM] | TGI (COLO 205 colon) [nM] | GI50 (IGROV1 ovarian) [nM] | TGI (IGROV1 ovarian) [nM]
1 | Cc1ccc(C(=O)Nc2ccc(CN3CCN(C)CC3)c(C(F)(F)F)c2)cc1C#Cc1cnc(N)c2ccccc12 | 219 | 1330 | 435 | 1080 | 134 | 2660 | 509 | 1090 | 609 | 1500 | 377 | 1080 | 320 | 1080 | 1160 | 6540 | 655 | 1620 | 103 | 814
2 | Fc1ccc(-c2nn3ncccc3c2-c2ccnc(Nc3ccc4c(c3)OCCO4)n2)cc1 | 6890 | > 25000 | 2290 | > 25000 | 5740 | > 23200 | 3380 | 13700 | 14000 | > 25000 | 5320 | 19800 | 5640 | > 23300 | 5760 | > 18900 | 1420 | > 25000 | 595 | > 11500
3 | COC(=O)C12C3C4C1C1C2C3C41NC(=O)c1csc([C@@H](C[C@H](C(C)C)N(C)C(=O)[C@@H](NC(=O)[C@H]2CCCCN2C)C2CC2)OC(C)=O)n1 (some centres undefined) | 500 | > 33300 | 88 | > 33300 | < 3.33 | > 33300 | 8.82 | > 33300 | 294 | > 33300 | 8.18 | > 33300 | 48.9 | > 33300 | 395 | > 33300 | 7.27 | 379 | 22.6 | > 33300
4 | COc1cc2c3c(n(CCNCCCNCCn4c5c(c6cc(OC)c(OC)cc6c4=O)C(=O)c4ccccc4-5)c(=O)c2cc1OC)-c1ccccc1C3=O | 1600 | 20300 | 186 | 6170 | 19.1 | 702 | 29.3 | 413 | 732 | 7560 | 75.4 | 590 | 71.9 | 4680 | 300 | 3040 | 121 | 1010 | 52.3 | 9570
5 | COc1cc2c3c(n(C)c(=O)c2cc1OC)-c1cc2c(cc1/C3=C\CNCCCN)OCO2 | 3420 | 36600 | 367 | 6070 | 20.3 | 618 | 162 | 2230 | 1280 | 18900 | 359 | 3930 | 750 | 12900 | 75.3 | 797 | 232 | 8710 | 284 | 
6 | Nc1ncn(C2CC(O)C(CO)O2)c(=O)n1 (centres undefined) |  | > 375000 |  | > 256000 |  | > 141000 |  | > 375000 |  | > 375000 |  | > 281000 |  | > 375000 |  | > 331000 |  | > 298000 |  | 372000
